The values that follow come from patent US8906943B2, “Synthetic compounds and methods to decrease nicotine self-administration” (priority 2010, dated 2014).

The target in one series is human CYP2A6 (Homo sapiens (Human), UniProt P11509). Kind of series: Inhibition of human CYP2A6-mediated coumarin 7-hydroxylation. Particulars: for Ki: read-out: Ki human CYP 2A6. The class given is biochemical. On the procedure:
Our first studies were with highly purified human CYP2A6 that provided a convenient and relatively high-throughput measure of CYP2A6 inhibition. Full dose-response IC50 values (nine concentrations) were determined (Table 1).

The target in another series is CYP2B1 (Rattus norvegicus (Rat), UniProt P00176). Kind of series: Inhibition of rat CYP2B1. In kind it is biochemical. The note with it: pH 7.5, Inhibitor present at 100 μM, read-out: rCYP2B1 % inhibition.
Sequence of CYP2B1 (P00176 whole entry): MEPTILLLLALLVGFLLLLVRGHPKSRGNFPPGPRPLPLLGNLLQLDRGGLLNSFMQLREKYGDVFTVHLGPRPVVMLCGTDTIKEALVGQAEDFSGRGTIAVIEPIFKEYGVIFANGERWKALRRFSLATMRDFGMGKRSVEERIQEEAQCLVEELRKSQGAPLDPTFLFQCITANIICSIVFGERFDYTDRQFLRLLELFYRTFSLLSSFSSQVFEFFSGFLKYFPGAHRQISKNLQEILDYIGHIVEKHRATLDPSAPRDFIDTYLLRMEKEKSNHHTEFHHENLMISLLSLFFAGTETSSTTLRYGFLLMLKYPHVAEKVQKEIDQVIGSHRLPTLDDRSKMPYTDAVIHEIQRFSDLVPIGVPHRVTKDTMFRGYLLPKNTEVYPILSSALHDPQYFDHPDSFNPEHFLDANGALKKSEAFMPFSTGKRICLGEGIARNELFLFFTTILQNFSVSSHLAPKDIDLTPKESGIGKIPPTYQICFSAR
The target in a further series is hCYP2B6 (Homo sapiens (Human), UniProt P20813). Kind of series: CYP2B6 inhibition, vivid blue substrate O-dealkylation. The class given is biochemical. Particulars: for IC50: ND = no detectable inhibition. On the procedure:
(§1) To gain insight into the selectivity of the synthetic compounds for inhibition of other CYPs, we examined the major CYPs present in human liver. […] A typical incubation mixture (final volume 0.25 mL) contained 50 mM Tris or KPhos buffer (pH 7.5), 0.5 mM NADP^+, 2.0 mM G6P, 1 U of G6P dehydrogenase and 0.6 mg DETAPAC and the inhibitor was added last to minimize interaction with the protein. After mixing on ice, the reaction was initiated by the addition of substrate and incubated at 37° C. with shaking in air. Organic extracts were analyzed by fluorescence (for fluorometric substrates) or injected onto a Hitachi L-7100 system equipped with a Hitachi L-7400 UV detector. Separations were done with an Altex Ultrasphere ODS (4.6 mm×250 mm, 5 μm) column and analytes were eluted with an isocratic solvent system consisting of water/acetonitrile/methanol (30:10:60, v/v/v) at a flow rate of 1.0 mL/min. Quantification of substrate and metabolite was determined from peak areas of the chromatogram and comparison with standard curves. IC50 values were determined with GraphPad Prism and kinetic data was converted into IC50 values. Each kinetic determination was reported as the mean±SD as described below. […] To measure CYP2A6 activity, coumarin 7-hydroxylation was determined as described in Denton et al., supra. To measure CYP3A4 activity, testosterone 6-hydroxylation was determined as described in Denton et al., supra. To measure CYP2E1, CYP2B6, CYP2C9, CYP2C19 and CYP2D6 activity, isozyme specific vivid blue substrate O-dealkylation was determined via a modified PanVera Vivid Assay Protocol as described in Denton et al., supra.

The test system of series [1] is nicotine self-administration in male Wistar rats. In words: Nicotine i.v. self-administration (IVSA) in rats, FR1 schedule. In kind it is in vivo, rat. Particulars: for Number of nicotine infusions, Compound (15 mg/kg): 15 mg/kg i.p. 30 minutes before i.v. self-administration of 0.03 mg/kg/infusion nicotine; for % Change (decrease in nicotine self-administration): versus vehicle; for Number of nicotine infusions, Compound (25 mg/kg): 25 mg/kg i.p. 30 minutes before i.v. self-administration of 0.03 mg/kg/infusion nicotine; for effect on nicotine intake, ANOVA of dose response: 1-hour self-administration sessions; for ED50: Rattus norvegicus, iv, rats, read-out: apparent ED50, nicotine IVSA. On the procedure:
Male, Wistar rats trained in a paradigm of nicotine i.v. self-administration (IVSA) generally related to a modification of a previously published protocol (Watkins et al., Pharmacol Biochem Behavior 62, 743-751 (1999)). Rats were treated with test compounds I-7. […] At 3.0 mg/kg, responding for nicotine was decreased by 62% when compared to control (vehicle-treated) conditions. […] On the basis of these initial studies, more extensive work was done and IVSA studies of compounds 8, 10 and 11 were conducted.
As with all the compounds examined in this study, there was no carry-over effect. […] The dose-effect function for treatment of 11 on nicotine self-administration is shown in [FIG. 2].

The target in another series is CYP2C9 (Homo sapiens (Human), UniProt P11712). Kind of series: CYP2C9 inhibition, vivid blue substrate O-dealkylation. In kind it is biochemical. Particulars: pH 7.5, probe isozyme specific vivid blue substrate (O-dealkylation), mean of triplicate, read-out: CYP2C9 Percent Inhibition. How it is done: as §1
Sequence of CYP2C9 (P11712 whole entry): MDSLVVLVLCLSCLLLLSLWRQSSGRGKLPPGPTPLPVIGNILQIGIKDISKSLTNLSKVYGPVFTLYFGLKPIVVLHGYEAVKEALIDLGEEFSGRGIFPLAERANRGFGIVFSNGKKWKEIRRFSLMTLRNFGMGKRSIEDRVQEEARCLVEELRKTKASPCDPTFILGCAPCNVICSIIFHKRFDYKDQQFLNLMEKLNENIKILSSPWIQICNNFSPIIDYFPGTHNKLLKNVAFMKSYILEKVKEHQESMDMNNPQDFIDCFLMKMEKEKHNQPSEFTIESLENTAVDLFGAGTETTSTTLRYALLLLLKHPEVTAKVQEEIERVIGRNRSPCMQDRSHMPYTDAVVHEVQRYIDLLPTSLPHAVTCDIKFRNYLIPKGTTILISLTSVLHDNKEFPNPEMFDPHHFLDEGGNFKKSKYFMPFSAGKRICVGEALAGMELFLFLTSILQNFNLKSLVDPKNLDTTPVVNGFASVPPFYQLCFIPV
A further series deals with CYP2E1 (Homo sapiens (Human), UniProt P05181). In words: CYP2E1 inhibition, vivid blue substrate O-dealkylation. In kind it is biochemical. The note with it: for inhibition of human CYP 2E1 (in words): 10 μM; for inhibition at 10 µM: human, pH 7.5, probe isozyme specific vivid blue substrate (O-dealkylation), mean of triplicate, read-out: CYP2E1 Percent Inhibition. On the procedure: as §1
Sequence of CYP2E1 (P05181 whole entry): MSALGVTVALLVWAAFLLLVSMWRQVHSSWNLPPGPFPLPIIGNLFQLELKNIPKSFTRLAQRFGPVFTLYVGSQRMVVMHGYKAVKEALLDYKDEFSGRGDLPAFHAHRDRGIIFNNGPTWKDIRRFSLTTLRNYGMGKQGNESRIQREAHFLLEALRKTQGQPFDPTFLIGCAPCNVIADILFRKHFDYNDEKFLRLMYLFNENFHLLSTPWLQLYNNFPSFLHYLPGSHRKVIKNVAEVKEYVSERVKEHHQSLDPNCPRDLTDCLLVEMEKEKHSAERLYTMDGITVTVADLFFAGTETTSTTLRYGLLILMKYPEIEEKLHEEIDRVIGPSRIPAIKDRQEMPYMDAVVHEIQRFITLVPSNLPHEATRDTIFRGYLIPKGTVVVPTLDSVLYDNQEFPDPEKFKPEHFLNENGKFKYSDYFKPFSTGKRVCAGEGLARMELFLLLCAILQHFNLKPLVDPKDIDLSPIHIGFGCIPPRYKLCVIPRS

A further series concerns the target CYP2D6 (Homo sapiens (Human), UniProt P10635). In words: CYP2D6 inhibition, vivid blue substrate O-dealkylation. The class given is biochemical. The note with it: pH 7.5, probe isozyme specific vivid blue substrate (O-dealkylation), mean of triplicate, read-out: CYP2D6 Percent Inhibition. On the procedure: as §1
The target in the next series is CYP2C19 (Homo sapiens (Human), UniProt P33261). Kind of series: CYP2C19 inhibition, vivid blue substrate O-dealkylation. In kind it is biochemical. Particulars: pH 7.5, probe isozyme specific vivid blue substrate (O-dealkylation), mean of triplicate, read-out: CYP2C19 Percent Inhibition. How it is done: as §1
Sequence of CYP2C19 (P33261 whole entry): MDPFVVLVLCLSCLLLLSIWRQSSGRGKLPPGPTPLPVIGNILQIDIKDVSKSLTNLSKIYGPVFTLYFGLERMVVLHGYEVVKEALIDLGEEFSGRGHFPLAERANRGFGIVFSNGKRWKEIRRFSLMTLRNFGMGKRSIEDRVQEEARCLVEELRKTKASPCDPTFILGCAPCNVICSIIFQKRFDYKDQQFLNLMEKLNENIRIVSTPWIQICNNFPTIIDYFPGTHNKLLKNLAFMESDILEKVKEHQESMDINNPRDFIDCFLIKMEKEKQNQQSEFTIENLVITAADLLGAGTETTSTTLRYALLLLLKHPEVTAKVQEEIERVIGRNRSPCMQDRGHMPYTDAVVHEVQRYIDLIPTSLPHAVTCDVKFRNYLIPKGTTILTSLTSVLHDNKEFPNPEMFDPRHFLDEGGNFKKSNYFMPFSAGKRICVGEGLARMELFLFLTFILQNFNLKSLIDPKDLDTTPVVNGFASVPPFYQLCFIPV
The next series addresses CYP3A4 (Homo sapiens (Human), UniProt P08684). In words: in vitro. The note with it: pH 7.5. How it is done: as §1, with “Separations were done with an Altex Ultrasphere ODS (4.6 mm×250 mm, 5 μm) column and analytes were eluted with an isocratic solvent system consisting of water/acetonitrile/methanol (30:10:60, v/v/v) at a flow rate of 1.0 mL/min.” left out, “values.” for “values. Each kinetic determination was reported as the mean±SD as described below.”

In the next series the test system is food intake in rats. In words: Order and food effects, operant food sessions. In kind it is in vivo, rat. Particulars: for Food Effects: mean ± SEM. From the text:
The conclusion is that the effect of 10 and 11 was selective and highly efficacious on a biological target and not a promiscuous non-specific behavioral effect.

Setting [2] is: Table 3, read-out: CYP2A6 Inhibition IC50.
Setting [3] is: Table 1, purified human CYP2A6, nine concentrations, read-out: hCYP2A6 IC50.

Like-named read-outs stand apart in the source and are kept apart here. Marks after values point to notes of the source that are not given here.

Sequence of CYP2D6 (P10635 whole entry): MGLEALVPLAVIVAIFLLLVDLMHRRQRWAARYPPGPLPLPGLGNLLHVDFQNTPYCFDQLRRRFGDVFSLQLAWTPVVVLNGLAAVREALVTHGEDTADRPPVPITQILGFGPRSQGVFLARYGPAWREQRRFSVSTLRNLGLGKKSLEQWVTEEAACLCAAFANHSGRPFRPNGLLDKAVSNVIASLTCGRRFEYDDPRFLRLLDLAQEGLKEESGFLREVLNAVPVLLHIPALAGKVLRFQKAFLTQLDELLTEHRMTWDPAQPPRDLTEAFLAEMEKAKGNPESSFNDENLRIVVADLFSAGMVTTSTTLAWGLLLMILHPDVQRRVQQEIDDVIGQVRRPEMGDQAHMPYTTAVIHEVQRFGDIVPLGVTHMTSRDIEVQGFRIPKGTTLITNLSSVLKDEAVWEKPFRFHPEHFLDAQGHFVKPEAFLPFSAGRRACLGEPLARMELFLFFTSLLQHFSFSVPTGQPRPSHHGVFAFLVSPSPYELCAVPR
Sequence of hCYP2B6 (P20813 whole entry): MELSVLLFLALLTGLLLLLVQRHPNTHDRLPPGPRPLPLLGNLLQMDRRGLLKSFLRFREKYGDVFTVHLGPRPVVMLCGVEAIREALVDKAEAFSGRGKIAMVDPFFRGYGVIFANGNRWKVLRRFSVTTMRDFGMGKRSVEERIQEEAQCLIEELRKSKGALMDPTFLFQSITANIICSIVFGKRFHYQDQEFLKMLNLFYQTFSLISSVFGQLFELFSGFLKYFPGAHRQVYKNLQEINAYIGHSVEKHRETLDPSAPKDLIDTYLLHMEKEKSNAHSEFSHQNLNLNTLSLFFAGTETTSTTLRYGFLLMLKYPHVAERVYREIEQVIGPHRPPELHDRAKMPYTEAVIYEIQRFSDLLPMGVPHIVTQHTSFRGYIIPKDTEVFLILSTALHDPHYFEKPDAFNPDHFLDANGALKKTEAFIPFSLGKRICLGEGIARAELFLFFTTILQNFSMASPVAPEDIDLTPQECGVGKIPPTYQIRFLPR
Sequence of human CYP2A6 (P11509 whole entry): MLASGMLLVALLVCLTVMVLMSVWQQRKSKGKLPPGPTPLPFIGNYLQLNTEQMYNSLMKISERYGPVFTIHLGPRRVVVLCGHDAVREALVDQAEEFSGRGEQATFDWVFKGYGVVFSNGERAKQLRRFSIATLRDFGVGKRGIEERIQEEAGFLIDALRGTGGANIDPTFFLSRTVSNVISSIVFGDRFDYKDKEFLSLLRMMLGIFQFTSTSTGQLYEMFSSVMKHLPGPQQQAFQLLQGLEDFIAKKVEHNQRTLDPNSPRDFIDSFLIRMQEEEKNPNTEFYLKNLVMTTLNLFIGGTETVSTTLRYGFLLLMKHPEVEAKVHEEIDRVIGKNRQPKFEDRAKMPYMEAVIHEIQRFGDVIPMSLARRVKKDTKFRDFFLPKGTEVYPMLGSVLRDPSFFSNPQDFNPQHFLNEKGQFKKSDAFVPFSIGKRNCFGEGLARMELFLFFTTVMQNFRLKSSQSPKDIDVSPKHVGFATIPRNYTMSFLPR
Sequence of CYP3A4 (P08684 whole entry): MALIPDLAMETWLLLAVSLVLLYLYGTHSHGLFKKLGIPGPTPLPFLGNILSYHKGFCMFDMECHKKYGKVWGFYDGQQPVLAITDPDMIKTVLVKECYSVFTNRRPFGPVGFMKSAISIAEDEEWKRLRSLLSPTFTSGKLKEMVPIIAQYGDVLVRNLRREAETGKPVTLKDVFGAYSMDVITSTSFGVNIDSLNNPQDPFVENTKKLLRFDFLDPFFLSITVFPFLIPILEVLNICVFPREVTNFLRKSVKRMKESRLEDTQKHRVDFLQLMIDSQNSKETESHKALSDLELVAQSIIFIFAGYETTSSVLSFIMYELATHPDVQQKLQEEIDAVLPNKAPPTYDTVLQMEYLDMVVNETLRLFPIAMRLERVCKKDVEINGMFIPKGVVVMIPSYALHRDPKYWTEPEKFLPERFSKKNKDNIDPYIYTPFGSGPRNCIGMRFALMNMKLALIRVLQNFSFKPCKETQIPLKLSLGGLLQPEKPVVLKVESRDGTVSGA

Consider `N[C@@H]1C[C@H]1c1ccccc1` (racemic) [Tranylcypromine, reference compound], for which the IC50 (as a rule, the midpoint of a concentration-inhibition curve) on human CYP2A6 (setting [2]) was 233 nM.
In the case of `NCc1cc(-c2cccnc2)n[nH]1` [Compound 1], the inhibition (as a rule, the drop in the measured response relative to a control, in per cent) at 100 µM on CYP2B1 was 53.8%. In addition, the results for the IC50 at hCYP2B6 and on human CYP2A6 (setting [3]) were 66400 nM and 600 nM, respectively. For the same compound, the “Number of nicotine infusions, Compound (15 mg/kg)” value (shortened to “Number … (15 mg/kg)”) in series [1] (FR1) stood at 11.6 ± 2.9. Moreover, the “% Change (decrease in nicotine self-administration)” value in series [1] (15 mg/kg i.p.) amounted to 14.7%.
In the case of `NCc1cc(-c2cccnc2)no1` [Compound 2], the inhibition at 100 µM on CYP2B1 was determined as 55.3%. The IC50 against hCYP2B6 worked out at 67400 nM; on human CYP2A6 (setting [3]) it was 800 nM. In series [1] (FR1), the “Number … (15 mg/kg)” value was determined as 8.4 ± 1.7. Besides, the “% Change (decrease in nicotine self-administration)” value in [1] (15 mg/kg i.p.) is given as 19.2%; in series [1] (25 mg/kg i.p.), 60. %. Moreover, the “Number of nicotine infusions, Compound (25 mg/kg)” value (“Number … (25 mg/kg)” for short) in series [1] (FR1) is recorded as 5.6 ± 1.6^d.
Take `Clc1ccc(Cn2ccnc2)cc1` [Compound 3, N-(4-Chlorobenzyl)imidazole]: the inhibition at 100 µM on CYP2B1 stood at 35.5%. Besides, the “inhibition of human CYP 2B6 (in words)” value on hCYP2B6 was “inhibited human CYP 2B6 to a certain extent”. For the same compound, the 50% inhibitory concentration (IC50) on hCYP2B6 was determined as 12000 nM; at human CYP2A6 (setting [3]), 160 nM. Besides, the inhibition at 10 µM on CYP2C9 worked out at 32%; on CYP2E1, 87%; at CYP2D6, 48%; at CYP2C19, 43%. Further, the Ki (commonly the dissociation constant of the complex between target and ligand, obtained from inhibition or displacement) on human CYP2A6 turned out to be 80 nM. Moreover, the “inhibition of human CYP 2E1 (in words)” value against CYP2E1 was “some inhibition”. In series [1] (FR1), the “Number … (15 mg/kg)” value turned out to be 13.0 ± 2.7. In addition, in [1] (15 mg/kg i.p.), the “% Change (decrease in nicotine self-administration)” value was found to be 23.6%.
Consider `NCc1ccc(-c2cccnc2)s1` [Compound 4], for which the inhibition at 100 µM at CYP2B1 was 42.7%. Further, in series [1] (FR1), the “Number … (15 mg/kg)” value is on record as 11.8 ± 3.2. The “% Change (decrease in nicotine self-administration)” value in [1] (15 mg/kg i.p.) is 23.4%.
For `Cc1ccsc1-c1cccnc1` [Compound 5], the inhibition at 100 µM on CYP2B1 was 47.9%. Also, on human CYP2A6 (setting [3]), the 50% inhibitory concentration (IC50) was […]. Besides, in series [1] (FR1), the “Number … (15 mg/kg)” value worked out at 8.8 ± 1.6 and the “Number … (25 mg/kg)” value is on record as 1.6 ± 0.7^d.
For the compound `NCc1ccc(-c2cccnc2)o1` [Compound 6], the inhibition at 100 µM on CYP2B1 was found to be 46.6%. Moreover, the IC50 on human CYP2A6 (setting [3]) is 200 nM. For the same compound, in series [1] (FR1), the “Number … (15 mg/kg)” value is listed as 16.8 ± 2.3^d and the “Number … (25 mg/kg)” value is 8.3 ± 2.1^d. Further, the “% Change (decrease in nicotine self-administration)” value in [1] (15 mg/kg i.p.) amounted to 27.6%. Besides, the “% Change (decrease in nicotine self-administration)” value in series [1] (25 mg/kg i.p.) stood at 64.2%.
As for `c1cncc(Cn2ccnc2)c1` [Compound 7, N-(3-Pyridylmethyl)imidazole], the inhibition at 100 µM at CYP2B1 was found to be 43.3%. The IC50 at human CYP2A6 (setting [3]) is greater than 200000 nM. In addition, at human CYP2A6, the inhibition constant (Ki) is greater than 200000 nM. Moreover, in series [1] (FR1), the “Number … (15 mg/kg)” value was 7.5 ± 1.9^d. In series [1] (15 mg/kg i.p.), the “% Change (decrease in nicotine self-administration)” value is 28.6%.
Take `c1cncc(-c2c[nH]cn2)c1` [Compound 8]: the IC50 amounted to 800000 nM on human CYP2A6 (setting [3]) and 800 nM at human CYP2A6 (setting [2]). Moreover, the “effect on nicotine intake, ANOVA of dose response” value (“effect on nicotine intake, ANOVA” below) in series [1] (i.p.) is “failed to reveal a significant effect”.
In the case of `c1cc(CCn2ccnc2)ccn1` [Compound 9, N-(4-Pyridylethyl)imidazole], the inhibition at 100 µM at CYP2B1 stood at 53.5%. Further, the “nicotine self-administration under a FR schedule (in words)” value in [1] (15 mg/kg, i.p., 30-min prior) was “decreased nicotine self-administration”.
For `c1cn(CC2CCCCC2)cn1` [Compound 10, N-(Cyclohexylmethyl)imidazole], the inhibition at 100 µM at CYP2B1 was 56.9%. In addition, the “inhibition of human CYP 2B6 (in words)” value against hCYP2B6 is on record as “inhibited human CYP 2B6 to a certain extent”. For the same compound, the half-maximal inhibitory concentration (IC50) against hCYP2B6 was 11000 nM; on human CYP2A6 (setting [3]), 170000 nM. In addition, the inhibition at 10 µM came out at 27% at CYP3A4; 44% at CYP2C9; 89% at CYP2E1; 34% on CYP2D6; 24% at CYP2C19. The figures for the “Food Effects” value in the series on food intake in rats (Dose 0.5 mg/kg), in the series with food intake in rats (Dose 1.58 mg/kg) and in the series on food intake in rats (Dose 5.0 mg/kg) were 80 ± 1.8, 79 ± 2.5 and 77 ± 3.2, respectively. Moreover, on CYP2E1, the “inhibition of human CYP 2E1 (in words)” value is given as “some inhibition”. The 50% effective dose (ED50) – broadly, the dose at which the effect has come halfway, by size or by number of responders – in series [1] was found to be 4 mg/kg. Moreover, in series [1] (i.p.), the “effect on nicotine intake, ANOVA” value is listed as “significant effect”.
On to `c1ccc(CCn2ccnc2)cc1` [Compound 11, 1-Phenethyl-2-imidazol-1-yl], for which the inhibition at 100 µM at CYP2B1 is 67.7%. The “inhibition of human CYP 2B6 (in words)” value against hCYP2B6 is given as “inhibited human CYP 2B6 to a certain extent”. Moreover, the IC50 is greater than 20000 nM against hCYP2B6, 618000 nM on human CYP2A6 (setting [3]) and 618 nM at human CYP2A6 (setting [2]). Also, the inhibition at 10 µM turned out to be 63% on CYP3A4; 13% on CYP2C9; 88% at CYP2E1; 62% at CYP2D6; 21% on CYP2C19. In addition, in the series on food intake in rats (5 mg/kg, 30-min operant food sessions), the “effect on food intake (in words)” value was “significant suppression”. Moreover, the “Food Effects” value in the series on food intake in rats (Dose 2.8 mg/kg) stood at 79 ± 1.3; in the series on food intake in rats (Dose 5.0 mg/kg), 63 ± 5.6. Besides, the “inhibition of human CYP 2E1 (in words)” value on CYP2E1 is given as “some inhibition”. Moreover, in series [1], the median effective dose (ED50) amounted to 3 mg/kg. For the same compound, the “effect on nicotine intake, ANOVA” value in series [1] (i.p.) is on record as “significant effect”.
Take `CNC1(C)C2CCC(C2)C1(C)C` (centres unmarked) [Mecamylamine, reference compound]: in [1] (3.0 mg/kg, s.c., 30 minutes before the session, FR1), the “decrease in responding for nicotine versus vehicle” value was 62%.
